Source: patent publication US11878001B2, “Use of mavoglurant in the reduction of cocaine use or in preventing relapse into cocaine use” (NOVARTIS AG, priority 2017, dated 2024)
“Also recorded” adds a separate entry of the source.

Experiments:
[1] = system: Sprague-Dawley rats; assay: Cue-induced reinstatement of the cocaine self-administration response after extinction, Phase II; type: in vivo; details: 10 mg/kg PO, 1 hour prior to test; after 9-day extinction; N=14-15 per group
Source text: (§1) Evaluation of the Effects of Mavoglurant on Cocaine Dependence and Cocaine Reinstatement Using the Intravenous Self-Administration Model in Sprague-Dawley Rats
(§2) Adult male Sprague-Dawley rats (300-325 g at arrival) from Harlan Laboratory (Indiana, USA) were used. Upon arrival, the rats were assigned a unique identification numbers (tail marks). Animals were single housed in suspended polycarbonate rat cages with filter tops, and were acclimated for up to 7 days. All rats were examined, handled, and weighed prior to initiation of the study to assure adequate health and suitability. During the course of the study, 12 h/12 h light/dark cycles were maintained. The room temperature was 21-23° C. with a relative humidity maintained at 30-70%. Water was provided ad libitum for the duration of the study.
(§3) Mavoglurant (free form) was formulated in 0.5% methylcellulose (MC) at 1, 3 and 10 mg/kg and administered orally at a dose volume of 1 ml/kg 60 minutes prior to test.
Intravenous drug self-administration took place in sound attenuated operant chambers equipped with an exhaust fan (Med Associates, VT). Each chamber contained two levers situated on one wall of the chamber. […]
During the reinstatement session, which occurred one day after the last extinction session, rats were presented the cues (flash+tone) at the beginning of the session and their lever-press responses recorded. […]

[2] = system: Sprague-Dawley rats; assay: Acute effects on intravenous cocaine self-administration (FR5) in rats, Phase I; type: in vivo; details: cocaine 0.3 mg/kg/infusion
Source text: as §1, §2
Cocaine Hydrochloride (Sigma-Aldrich, USA) (1.05 mg/ml which is equivalent to 0.3 mg/kg/infusion under 350 g body weight and 0.1 ml/infusion rate) was dissolved in saline (0.9% NaCl). The formulation was a clear solution.
as §3
Intravenous drug self-administration took place in sound attenuated operant chambers equipped with an exhaust fan (Med Associates, VT). Each chamber contained two levers situated on one wall of the chamber. Only one of the two levers was active (located on the left side). Pressing the active lever caused delivery of reinforcer (food or cocaine). […] A stimulus light was located above each lever, but only the one above the active lever was on during the timeout period (defined below). A house light (providing illumination) was located at the top of opposite wall. For food training (see details below), a pellet receptacle was situated between the two levers for delivery of food pellets (Bio-Serv's Dustless Precision Pellets #F0165, 45 mg). […]

[3] = system: mice; details: cited from earlier work
[4] = target: T1, cytochrome P450 1A2 (Homo sapiens, UniProt P05177); details: cited from earlier work
T1 sequence (P05177 1-516): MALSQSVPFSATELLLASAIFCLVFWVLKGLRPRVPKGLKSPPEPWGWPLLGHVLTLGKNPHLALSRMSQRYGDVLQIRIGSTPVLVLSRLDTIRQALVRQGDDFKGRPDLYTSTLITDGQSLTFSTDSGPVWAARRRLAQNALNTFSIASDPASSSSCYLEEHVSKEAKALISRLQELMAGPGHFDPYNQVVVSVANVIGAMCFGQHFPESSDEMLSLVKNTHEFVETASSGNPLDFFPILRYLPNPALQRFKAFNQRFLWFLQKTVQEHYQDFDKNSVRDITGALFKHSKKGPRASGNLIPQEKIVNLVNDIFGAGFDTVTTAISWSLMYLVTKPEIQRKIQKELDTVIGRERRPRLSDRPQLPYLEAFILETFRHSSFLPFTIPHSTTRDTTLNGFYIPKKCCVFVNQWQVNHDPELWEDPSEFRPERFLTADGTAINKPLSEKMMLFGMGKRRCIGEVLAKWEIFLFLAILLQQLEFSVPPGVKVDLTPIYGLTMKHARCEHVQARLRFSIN

[5] = system: rats; details: cited from earlier work
[6] = system: monoamine oxidase; details: cited from earlier work
[7] = system: NMDA receptors; details: cited from earlier work
[8] = target: norepinephrine transporter (Homo sapiens, UniProt P23975); details: cited from earlier work
norepinephrine transporter, sequence (P23975 whole entry, species assumed): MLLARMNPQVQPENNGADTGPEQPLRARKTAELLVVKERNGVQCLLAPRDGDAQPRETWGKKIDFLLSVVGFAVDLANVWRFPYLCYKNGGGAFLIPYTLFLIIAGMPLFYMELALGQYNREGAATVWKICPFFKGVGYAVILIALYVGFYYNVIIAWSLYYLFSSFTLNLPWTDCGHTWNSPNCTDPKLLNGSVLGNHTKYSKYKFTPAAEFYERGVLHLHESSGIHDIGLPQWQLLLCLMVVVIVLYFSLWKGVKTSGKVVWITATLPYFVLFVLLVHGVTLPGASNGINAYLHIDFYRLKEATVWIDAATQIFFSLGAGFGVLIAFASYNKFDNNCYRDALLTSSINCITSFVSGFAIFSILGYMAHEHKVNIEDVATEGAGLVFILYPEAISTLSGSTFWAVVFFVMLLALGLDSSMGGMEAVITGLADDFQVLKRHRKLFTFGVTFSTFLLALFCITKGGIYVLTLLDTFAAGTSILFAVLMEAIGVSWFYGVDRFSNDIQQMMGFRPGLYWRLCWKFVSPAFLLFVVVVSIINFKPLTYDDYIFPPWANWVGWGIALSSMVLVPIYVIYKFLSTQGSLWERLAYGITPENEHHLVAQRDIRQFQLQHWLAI

[9] = in vivo; cited from earlier work

COC(=O)N1CC[C@@H]2[C@H]1CCC[C@@]2(O)C#Cc1cccc(C)c1 [mavoglurant, (−)-(3aR,4S,7aR)-4-Hydroxy-4-m-tolylethynyl-octahydro-indole-1-carboxylic acid methyl ester]
cue-induced reinstatement of the self-administration response [1]: cue-induced reinstatement was suppressed; also recorded: completely prevented cue-induced reinstatement
responding on the active lever (cocaine self-administration) ([2]; 3 mg/kg orally, 60 minutes prior to test, post hoc p<0.10, N=12): tended to reduce responding on the active lever
responding on the active lever (cocaine self-administration) ([2]; 10 mg/kg PO, 1 hour prior to test, post hoc p<0.001, N=12): significantly reduced responding
responding on the active lever (cocaine self-administration) ([2]; 10 mg/kg PO, 1 hour prior to test, post hoc p<0.001, N=12, listed as Mavoglurant): significantly reduced cocaine self-administration

Cc1nc(C#Cc2cccnc2)cs1 [MTEP, 3-[2-(2-methylthiazol-4-yl)ethynyl]pyridine]
cocaine self-administration [3]: decreased cocaine self-administration
inhibition of cytochrome P450 1A2 [4]: potent inhibition
cocaine self-administration [5]: decreased cocaine self-administration

Cc1cccc(C#Cc2ccccc2)n1 [MPEP, 2-methyl-6-(2-phenylethynyl)pyridine]
cocaine self-administration [3]: decreased cocaine self-administration
off-target effects on monoamine oxidase [6]: off-target effects
off-target effects on NMDA receptors [7]: off-target effects
cocaine self-administration [5]: decreased cocaine self-administration
off-target effects on the norepinephrine transporter [8]: off-target effects

CNCCCN1c2ccccc2CCc2ccccc21 [desipramine]
cocaine craving [9]: reduce
cocaine use [9]: reduce
symptoms of cocaine withdrawal [9]: alleviate symptoms of cocaine withdrawal
